Here are results for three substances from patent US11884709B2, “Peptides for the treatment of resorptive bone disease” (University of New Brunswick, priority 2015, dated 2024).

“Also recorded” adds a separate entry of the source. Where no end group is shown, it is not given here.

The conditions of data set [1]: in vivo; cited from earlier work.
For data set [2], the system named is two ovarian cancer cell lines. As to conditions: cited from earlier work.
Data set [3] deals with osteoclast differentiation. In words: Osteoclast differentiation from bone marrow mononuclear cells (M-CSF and RANKL). The format is cell-based, human. Conditions: 150 μM (C5). On the procedure: (§1) Osteoclasts were generated in vitro by the modified method of Cody et al., 2011, using fresh human bone marrow aspirates. Briefly, bone marrow mononuclear cells (BMC) separated on a density gradient medium in SepMate tubes were resuspended in growth media (α-MEM with 10% FBS) and cultured for 3 days in T75 flask with 35 ng/mL M-CSF at 37° C. in a 5% CO2 incubator. For osteoclast differentiation experiments, 10^5 cells/well of BM monocytes-macrophage precursors seeded in a 24 well plate was treated with human M-CSF and RANKL, and media replenished with fresh cytokines every third day for two weeks.
(§2) 10^5 BMCs per well in 24 well Corning osteoassay plate were treated with human M-CSF (10 ng/mL) and 10 ng/mL of human RANKL. […] Osteoassay plate was scanned using ChemiDoc MP and area of resorption pits in each well was quantified using ImageJ 1.48v Software.
The effect of C-terminal Soricidin peptides on osteoclast activity and bone resorption was examined using 24-well corning assay plates that have a 3D osteo surface that mimics in vivo bone for in vitro bone cell assays. […] Resorption of the osteosurface is evident from the resorption pits/trails made by the osteoclasts, and the extent of resorption was quantified. Furthermore, the percentage activity of TRAP, one of the enzymes involved in bone resorption, was determined in tandem with the resorption assay (FIG. 7c). […]

The next data set relates to U266 cells. Briefly: 48 hr peptide treatment, myeloma cell growth (U266). In kind it is cell-based, human. Conditions: 1 uM-500 uM. Here is the method: C1=1 uM, C2=10 uM, C3=50 uM, C4=100 uM, C5=150 uM, C6=250 uM, C7=400 uM, C8=500 uM.
(§3) The expression of TRPV6 protein was also observed in human myeloma cells by immunohistochemistry on myeloma bone sections (FIG. 1C) and in myeloma cell lines by western blotting (FIG. 9). Moreover, the growth inhibitory potential of SOR-C13 and SOR-C27 was determined using human myeloma cell lines U266 and KMM-1 (FIGS. 10 and 11). There exists a reciprocal relationship between myeloma cells and osteoclasts in the bone marrow milieu where myeloma cells secrete many factors that promote osteoclast activity, and in turn osteoclasts induce myeloma cell growth and survival.

The test system of data set [4] is Tartrate-Resistant Acid Phosphatase (TRAP) in osteoclasts. Briefly: TRAP enzyme activity in conditioned media of osteoassay wells. In kind it is cell-based, human. As to conditions: relative to controls. On the procedure:
Osteoclasts were fixed and stained for tartrate-resistant acid phosphatase (TRAP) using the leukocyte acid phosphatase kit (Sigma-Aldrich) according to the manufacturer's protocol. Images were acquired in EVOS brightfield microscope. To visualize actin ring formation in osteoclasts, tetramethyl rhodamine-phalloidin (Life Technologies Inc.) staining was done for 1 hour. The cell nuclei were counterstained with 1 μg/ml Hoechst 33342 (Sigma-Aldrich) in phosphate buffered saline for 5 minute. Images were acquired in EVOS fluorescence microscope. TRAP enzyme activity was measured at 37° C. with a substrate buffer (125 mg/ml Naphthol AS-BI phosphoric acid in diazotized fast garnet base chemical solution, Sigma-Aldrich) at 560 nm.
as §2
The effect of C-terminal Soricidin peptides on osteoclast activity and bone resorption was examined using 24-well corning assay plates that have a 3D osteo surface that mimics in vivo bone for in vitro bone cell assays. […] Resorption of the osteosurface is evident from the resorption pits/trails made by the osteoclasts, and the extent of resorption was quantified. […]

For another data set, the system named is human osteoclasts. In words: Osteoassay: bone resorption by osteoclasts on Corning osteoassay plate. The format is cell-based. Conditions: for resorptive activity on corning osteoassay surface: 150 μM (C5); for bone resorption by osteoclasts / osteoclast activity (percentage resorption): Corning osteoassay plate, 1 uM-150 uM, M-CSF and RANKL, day 12. Here is the method: as §1
10^5 BMCs per well in 24 well Corning osteoassay plate were treated with human M-CSF (10 ng/mL) and 10 ng/mL of human RANKL. Undifferentiated condition includes cells treated with M-CSF only. The treatment wells had both M-CSF and RANKL followed by addition of TRPV6 peptide antagonists SOR-C13 and SOR-C27 at concentrations range 1 μM-150 μM tested in triplicate wells, vehicle or PBS buffer in which the peptides are dissolved and the standard anti-resorbing agent, Zoledronate were included for the experiment. Replenishment with fresh media containing M-CSF, RANKL and SOR peptides in respective wells was carried out every third day. On day 12, cells in osteoplates were removed by incubating with 10% bleach for 10 minutes; wells were washed with distilled water three times and air-dried for 3-5 hrs. Osteoassay plate was scanned using ChemiDoc MP and area of resorption pits in each well was quantified using ImageJ 1.48v Software.
Experiments were done in triplicates for each condition and data presented as mean±SD. All statistical analyses were done using GraphPad Prism 6, one way ANOVA and Dunnett's multiple comparison test was used to determine significance between groups and P<0.05 is considered statistically significant.
The effect of C-terminal Soricidin peptides on osteoclast activity and bone resorption was examined using 24-well corning assay plates that have a 3D osteo surface that mimics in vivo bone for in vitro bone cell assays. The inorganic bone biomaterial surface in each well is capable of supporting the functional properties of osteogenic cells. Only osteoclasts, specialized cells expressing bone-resorbing enzymes such as TRAP, cathepsin K and collagenase, can resorb such an artificial osteosurface. Resorption of the osteosurface is evident from the resorption pits/trails made by the osteoclasts, and the extent of resorption was quantified. Furthermore, the percentage activity of TRAP, one of the enzymes involved in bone resorption, was determined in tandem with the resorption assay (FIG. 7c). The anti-resorptive potential of selective TRPV6 antagonist peptides, SOR-C13 and SOR-C27 at various concentrations was observed (FIGS. 7 and 8) was observed.

The next data set deals with KMM-1 cells. In words: 48 hr peptide treatment, myeloma cell growth (KMM-1). The format is cell-based, human. As to conditions: 1 uM-500 uM. On the procedure:
C1=1 uM, C2=10 uM, C3=50 uM, C4=100 uM, C5=150 uM, C6=250 uM, C7=300 uM, C8=400 uM, C9=500 uM.
as §3

Turning to “Soricidin: fifty-four amino acid paralytic peptide isolated from the submaxilary saliva gland of the Northern Short-tailed Shrew (Blarina brevicauda) (DCSQDCAACSILARPAELNTETCILECEGKLSSNDTEGGLCKEFLHPSKVDLPR; UniProt P0C2P6 1-54, looked up)”, in data set [1], the paralysis result is recorded as “caused paralysis”. Besides, in data set [2], the calcium uptake entry is on record as “inhibited calcium uptake”.

On to “EGKLSSNDTEGGLCKEFLHPSKVDLPR [SOR-C27, peptide corresponding to the C-terminal end of soricidin; TRPV6 peptide antagonist]”, for which, in data set [3], the “osteoclast differentiation in vitro” value is “inhibited osteoclast differentiation”. Moreover, in the data set with U266 cells, the cell growth entry is on record as “dose-dependent inhibition of cell growth”. Besides, in data set [4], the TRAP enzyme activity entry is on record as “decrease in TRAP enzyme activity relative to controls”. Moreover, in the data set on human osteoclasts, the “resorptive activity on corning osteoassay surface” value is “significantly reduced their resorptive activity” and the “bone resorption by osteoclasts / osteoclast activity (percentage resorption)” value is recorded as “dose-dependent Inhibition of osteoclast activity; also recorded: dose-dependent decrease in bone resorption”. In addition, the cell growth result in the data set with KMM-1 cells is listed as “dose-dependent inhibition of cell growth”.

KEFLHPSKVDLPR [SOR-C13, KEFLHPSKVDLPR]: the “osteoclast differentiation in vitro” value in data set [3] is “inhibited osteoclast differentiation”. For the same substance, the cell growth entry with U266 cells is “dose-dependent inhibition of cell growth”. The TRAP enzyme activity result in data set [4] is reported as “decrease in TRAP enzyme activity relative to controls”. In the data set with human osteoclasts, the “resorptive activity on corning osteoassay surface” value is recorded as “significantly reduced their resorptive activity” and the “bone resorption by osteoclasts / osteoclast activity (percentage resorption)” value is listed as “inhibition of osteoclast activity; also recorded: dose-dependent decrease in bone resorption”. The cell growth entry with KMM-1 cells was “dose-dependent inhibition of cell growth”.
